“Also recorded” adds a separate entry of the source.

Data set [1] deals with Tg(fli1a:eGFP) zebrafish embryos. Description: Intersomitic vessel (ISV) formation in zebrafish embryos. In kind it is in vivo. The settings on record: treated from 12 hpf, scored at 48 hpf. The method, then:
The zebrafish colony was maintained as described and embryos were raised at 28.5°C. The Tg(BRE:mRFP) transgenic line (also called BRE-mRFP) has been described previously and expresses mRFP in response to BMP signaling. […] Inhibitor stocks were diluted in DMSO and then further diluted in fish water to give the required inhibitor concentrations. To minimize the amount of inhibitors used, experiments were performed in 24-well plates with approximately 20 embryos per well in a volume of 1 mL. The chemical treatment was applied by immersing 8- to 16-cell stage Tg(BRE:mRFP) embryos (dorsalization experiment) or 12 hours old […]) embryos (ISV experiment) in the fish water supplemented with DMSO or the chemical inhibitors. For the ISV experiment, embryos were manually dechorionated after bud stage before treatment. Embryos were scored and photographed at 26 or 48 hours.

For the next data set, the target named is T1, CLK3 (Homo sapiens, UniProt P49761).
T1 construct: purchased Nanosyn (enzymatic panel); SGC in-house recombinant human kinases (DSF panel); Invitrogen (ALK1-6)
The data set can be described thus: DSF thermal shift. To be noted: 10 µM inhibitor; read-out: Tm shift. It counts as binding. Put shortly: (§1)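 Ligand was tested at a single concentration of 10 µM against recombinant human kinase held at 1–2 µM, with melting curves collected by real-time PCR hardware.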

The target in a further data set is T2, MPSK1 (Homo sapiens, UniProt O75716).
T2 construct: purchased Nanosyn (enzymatic panel); SGC in-house recombinant human kinases (DSF panel); Invitrogen (ALK1-6)
The data set can be described thus: DSF thermal shift. The settings on record: 10 µM inhibitor; read-out: Tm shift. It counts as binding. Put shortly:
as §1

In the next data set the target is T3, PTK7 (Homo sapiens, UniProt Q13308).
T3 construct: purchased Nanosyn (enzymatic panel); SGC in-house recombinant human kinases (DSF panel); Invitrogen (ALK1-6)
T3 sequence (Q13308 31-1070): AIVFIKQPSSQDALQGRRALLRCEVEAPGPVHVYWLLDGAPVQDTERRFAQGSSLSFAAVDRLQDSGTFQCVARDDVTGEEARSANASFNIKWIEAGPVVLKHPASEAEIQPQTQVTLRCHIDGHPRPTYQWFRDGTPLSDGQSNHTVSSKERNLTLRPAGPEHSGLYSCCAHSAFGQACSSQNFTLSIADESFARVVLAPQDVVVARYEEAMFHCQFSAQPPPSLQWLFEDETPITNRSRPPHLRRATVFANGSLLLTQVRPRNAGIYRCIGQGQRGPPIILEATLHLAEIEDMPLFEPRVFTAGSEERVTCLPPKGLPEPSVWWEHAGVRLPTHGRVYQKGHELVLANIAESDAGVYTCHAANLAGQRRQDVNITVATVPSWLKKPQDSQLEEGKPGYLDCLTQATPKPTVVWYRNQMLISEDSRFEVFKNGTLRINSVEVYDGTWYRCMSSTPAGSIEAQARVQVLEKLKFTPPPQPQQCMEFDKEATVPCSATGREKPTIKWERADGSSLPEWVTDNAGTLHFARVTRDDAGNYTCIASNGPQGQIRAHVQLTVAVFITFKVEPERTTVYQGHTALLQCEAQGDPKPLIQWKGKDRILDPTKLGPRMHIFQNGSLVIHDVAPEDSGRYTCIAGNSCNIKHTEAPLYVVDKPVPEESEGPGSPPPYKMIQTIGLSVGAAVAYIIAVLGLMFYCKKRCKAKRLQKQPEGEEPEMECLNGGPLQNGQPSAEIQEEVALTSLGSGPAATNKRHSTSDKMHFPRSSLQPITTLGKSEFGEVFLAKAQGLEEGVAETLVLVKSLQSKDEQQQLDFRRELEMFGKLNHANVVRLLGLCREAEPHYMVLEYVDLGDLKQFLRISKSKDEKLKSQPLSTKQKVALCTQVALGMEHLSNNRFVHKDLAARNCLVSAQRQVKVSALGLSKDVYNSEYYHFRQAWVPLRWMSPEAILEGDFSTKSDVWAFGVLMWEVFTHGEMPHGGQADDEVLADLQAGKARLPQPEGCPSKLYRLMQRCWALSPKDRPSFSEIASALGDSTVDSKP
Description: DSF thermal shift. It counts as binding. To be noted: 10 µM inhibitor; read-out: Tm shift. Put shortly:
as §1

In a further data set the target is T4, SLK (Homo sapiens, UniProt Q9H2G2).
T4 construct: purchased Nanosyn (enzymatic panel); SGC in-house recombinant human kinases (DSF panel); Invitrogen (ALK1-6)
The data set can be described thus: DSF thermal shift. It counts as binding. The settings on record: 10 µM inhibitor; read-out: Tm shift. Put shortly: as §1

The next data set concerns the target T5, CK1γ1 (Homo sapiens, UniProt Q9HCP0).
T5 construct: purchased Nanosyn (enzymatic panel); SGC in-house recombinant human kinases (DSF panel); Invitrogen (ALK1-6)
Description: DSF thermal shift. In kind it is binding. To be noted: 10 µM inhibitor; read-out: Tm shift. Put shortly: as §1

For a further data set, the target named is T6, PRKX (Homo sapiens, UniProt P51817).
T6 construct: purchased Nanosyn (enzymatic panel); SGC in-house recombinant human kinases (DSF panel); Invitrogen (ALK1-6)
T6 sequence (P51817 1-358): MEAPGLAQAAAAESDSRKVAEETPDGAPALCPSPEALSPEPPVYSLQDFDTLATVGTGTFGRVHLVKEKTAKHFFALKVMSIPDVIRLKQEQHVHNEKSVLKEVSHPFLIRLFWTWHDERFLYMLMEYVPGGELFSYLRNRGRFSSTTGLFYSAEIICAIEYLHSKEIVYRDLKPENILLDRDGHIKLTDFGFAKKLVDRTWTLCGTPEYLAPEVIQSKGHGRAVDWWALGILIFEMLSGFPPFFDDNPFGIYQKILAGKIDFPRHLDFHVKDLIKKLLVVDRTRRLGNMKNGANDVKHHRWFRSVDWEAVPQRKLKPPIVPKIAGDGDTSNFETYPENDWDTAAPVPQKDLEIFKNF
Description: DSF thermal shift. In kind it is binding. To be noted: 10 µM inhibitor; read-out: Tm shift. Put shortly: as §1

In another data set the target is T7, GAK (Homo sapiens, UniProt O14976).
T7 construct: purchased Nanosyn (enzymatic panel); SGC in-house recombinant human kinases (DSF panel); Invitrogen (ALK1-6)
The data set can be described thus: DSF thermal shift. To be noted: 10 µM inhibitor; read-out: Tm shift. It counts as binding. Put shortly:
as §1

The next data set addresses T8, ZAK (Homo sapiens, UniProt Q9NYL2).
T8 construct: purchased Nanosyn (enzymatic panel); SGC in-house recombinant human kinases (DSF panel); Invitrogen (ALK1-6)
Description: DSF thermal shift. It counts as binding. To be noted: 10 µM inhibitor; read-out: Tm shift. Put shortly:
as §1

The next data set concerns the target T9, ALK6 (Homo sapiens, UniProt O00238).
T9 construct: purchased Nanosyn (enzymatic panel); SGC in-house recombinant human kinases (DSF panel); Invitrogen (ALK1-6)
Description: DSF thermal shift. In kind it is binding. To be noted: 10 µM inhibitor; read-out: Tm shift. Put shortly:
as §1

For the next data set, the target named is T10, SRPK2 (Homo sapiens, UniProt P78362).
T10 construct: purchased Nanosyn (enzymatic panel); SGC in-house recombinant human kinases (DSF panel); Invitrogen (ALK1-6)
The data set can be described thus: DSF thermal shift. In kind it is binding. To be noted: 10 µM inhibitor; read-out: Tm shift. Put shortly:
as §1

T5 sequence (Q9HCP0 whole entry): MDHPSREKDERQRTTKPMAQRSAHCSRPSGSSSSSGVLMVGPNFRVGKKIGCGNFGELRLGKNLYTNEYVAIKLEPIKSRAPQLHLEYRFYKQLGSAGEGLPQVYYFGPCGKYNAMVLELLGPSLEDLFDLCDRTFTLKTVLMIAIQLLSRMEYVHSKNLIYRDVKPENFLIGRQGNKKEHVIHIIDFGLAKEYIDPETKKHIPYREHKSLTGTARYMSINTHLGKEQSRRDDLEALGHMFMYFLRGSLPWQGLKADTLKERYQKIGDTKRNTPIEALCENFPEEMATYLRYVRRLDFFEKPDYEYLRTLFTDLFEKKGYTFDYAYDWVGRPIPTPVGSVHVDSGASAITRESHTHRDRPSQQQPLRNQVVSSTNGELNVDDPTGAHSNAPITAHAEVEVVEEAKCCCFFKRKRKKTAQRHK
T4 sequence (Q9H2G2 whole entry): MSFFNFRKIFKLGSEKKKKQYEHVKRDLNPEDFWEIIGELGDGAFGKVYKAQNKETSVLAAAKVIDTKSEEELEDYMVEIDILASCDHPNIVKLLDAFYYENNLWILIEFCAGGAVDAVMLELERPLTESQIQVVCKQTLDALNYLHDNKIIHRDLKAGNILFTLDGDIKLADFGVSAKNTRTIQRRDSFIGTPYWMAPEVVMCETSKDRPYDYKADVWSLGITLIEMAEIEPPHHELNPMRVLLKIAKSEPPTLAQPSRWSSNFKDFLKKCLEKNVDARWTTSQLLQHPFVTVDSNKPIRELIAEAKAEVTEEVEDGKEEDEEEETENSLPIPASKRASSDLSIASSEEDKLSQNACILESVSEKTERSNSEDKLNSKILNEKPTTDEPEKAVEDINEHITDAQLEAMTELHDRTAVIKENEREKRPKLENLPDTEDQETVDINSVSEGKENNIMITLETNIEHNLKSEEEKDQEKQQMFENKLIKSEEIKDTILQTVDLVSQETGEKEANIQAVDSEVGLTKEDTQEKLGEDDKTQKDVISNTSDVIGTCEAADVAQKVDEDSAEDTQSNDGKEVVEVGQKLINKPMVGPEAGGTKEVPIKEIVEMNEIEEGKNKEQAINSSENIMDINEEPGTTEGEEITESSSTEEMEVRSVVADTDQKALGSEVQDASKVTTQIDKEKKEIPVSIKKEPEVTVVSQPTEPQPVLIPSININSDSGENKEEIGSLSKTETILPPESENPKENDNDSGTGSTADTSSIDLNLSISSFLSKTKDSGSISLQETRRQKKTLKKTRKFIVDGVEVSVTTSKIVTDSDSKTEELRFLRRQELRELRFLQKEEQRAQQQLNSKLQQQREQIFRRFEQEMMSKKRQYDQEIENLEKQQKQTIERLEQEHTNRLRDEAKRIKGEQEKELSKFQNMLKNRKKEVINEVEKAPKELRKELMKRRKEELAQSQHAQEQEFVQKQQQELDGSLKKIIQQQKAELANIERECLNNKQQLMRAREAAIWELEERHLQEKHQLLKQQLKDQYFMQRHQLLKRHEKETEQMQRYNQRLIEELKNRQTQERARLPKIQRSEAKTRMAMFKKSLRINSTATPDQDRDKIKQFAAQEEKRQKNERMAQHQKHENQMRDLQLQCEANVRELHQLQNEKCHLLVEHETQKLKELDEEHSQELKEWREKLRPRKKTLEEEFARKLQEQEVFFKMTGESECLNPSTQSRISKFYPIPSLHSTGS
T1 sequence (P49761 whole entry): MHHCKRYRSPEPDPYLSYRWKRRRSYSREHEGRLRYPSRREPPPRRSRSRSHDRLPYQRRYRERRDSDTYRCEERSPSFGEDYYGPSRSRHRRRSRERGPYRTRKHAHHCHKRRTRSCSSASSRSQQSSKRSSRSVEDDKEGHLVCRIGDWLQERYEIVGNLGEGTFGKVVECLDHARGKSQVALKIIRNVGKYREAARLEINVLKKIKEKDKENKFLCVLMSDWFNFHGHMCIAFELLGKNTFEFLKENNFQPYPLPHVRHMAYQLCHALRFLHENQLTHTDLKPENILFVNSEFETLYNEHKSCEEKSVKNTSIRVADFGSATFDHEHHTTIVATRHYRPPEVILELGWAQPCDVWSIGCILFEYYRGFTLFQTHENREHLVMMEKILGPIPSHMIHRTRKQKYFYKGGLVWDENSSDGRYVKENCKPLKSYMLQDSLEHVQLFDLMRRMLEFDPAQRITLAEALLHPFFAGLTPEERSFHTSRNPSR
T2 sequence (O75716 whole entry): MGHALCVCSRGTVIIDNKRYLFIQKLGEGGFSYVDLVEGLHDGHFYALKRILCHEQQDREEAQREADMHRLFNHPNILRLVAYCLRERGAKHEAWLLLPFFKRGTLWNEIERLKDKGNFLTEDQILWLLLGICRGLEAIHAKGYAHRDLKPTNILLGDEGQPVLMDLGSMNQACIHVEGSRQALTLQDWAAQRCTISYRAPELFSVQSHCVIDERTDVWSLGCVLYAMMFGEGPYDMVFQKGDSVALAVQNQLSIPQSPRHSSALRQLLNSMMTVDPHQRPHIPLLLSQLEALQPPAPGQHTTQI
T7 sequence (O14976 whole entry): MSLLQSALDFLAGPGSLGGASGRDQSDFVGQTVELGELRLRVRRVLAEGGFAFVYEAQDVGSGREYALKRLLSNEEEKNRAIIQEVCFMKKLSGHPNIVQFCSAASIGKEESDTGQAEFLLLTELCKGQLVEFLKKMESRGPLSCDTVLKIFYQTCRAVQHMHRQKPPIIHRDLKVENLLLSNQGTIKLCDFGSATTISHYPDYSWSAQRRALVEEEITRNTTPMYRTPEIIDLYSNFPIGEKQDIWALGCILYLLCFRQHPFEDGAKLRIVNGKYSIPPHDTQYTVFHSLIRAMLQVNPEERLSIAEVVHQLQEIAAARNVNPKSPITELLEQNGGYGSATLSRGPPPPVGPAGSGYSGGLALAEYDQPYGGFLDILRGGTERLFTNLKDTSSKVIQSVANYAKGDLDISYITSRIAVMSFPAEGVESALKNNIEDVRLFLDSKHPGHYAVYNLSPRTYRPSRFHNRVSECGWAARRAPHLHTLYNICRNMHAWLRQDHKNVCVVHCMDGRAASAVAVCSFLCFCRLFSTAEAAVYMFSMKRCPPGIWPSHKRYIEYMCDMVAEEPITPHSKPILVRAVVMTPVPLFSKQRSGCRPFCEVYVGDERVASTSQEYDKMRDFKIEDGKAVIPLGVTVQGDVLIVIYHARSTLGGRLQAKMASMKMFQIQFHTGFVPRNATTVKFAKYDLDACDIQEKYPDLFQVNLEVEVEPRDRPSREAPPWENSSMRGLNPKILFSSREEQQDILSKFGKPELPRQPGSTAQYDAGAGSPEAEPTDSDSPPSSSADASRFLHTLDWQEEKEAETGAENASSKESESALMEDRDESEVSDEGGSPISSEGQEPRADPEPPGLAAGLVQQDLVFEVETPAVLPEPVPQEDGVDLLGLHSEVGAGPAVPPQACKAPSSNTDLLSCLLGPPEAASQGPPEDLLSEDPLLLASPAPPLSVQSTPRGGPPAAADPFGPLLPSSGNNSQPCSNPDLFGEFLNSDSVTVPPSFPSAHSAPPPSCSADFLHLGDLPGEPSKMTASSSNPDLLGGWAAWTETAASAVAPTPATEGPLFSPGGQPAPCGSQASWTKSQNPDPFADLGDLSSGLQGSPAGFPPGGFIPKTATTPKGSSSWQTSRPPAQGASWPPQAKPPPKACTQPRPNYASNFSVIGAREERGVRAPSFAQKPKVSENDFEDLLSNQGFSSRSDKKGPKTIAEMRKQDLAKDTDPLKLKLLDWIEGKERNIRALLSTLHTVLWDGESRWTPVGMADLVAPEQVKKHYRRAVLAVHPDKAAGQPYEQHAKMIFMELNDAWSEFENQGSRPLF
T10 sequence (P78362 whole entry): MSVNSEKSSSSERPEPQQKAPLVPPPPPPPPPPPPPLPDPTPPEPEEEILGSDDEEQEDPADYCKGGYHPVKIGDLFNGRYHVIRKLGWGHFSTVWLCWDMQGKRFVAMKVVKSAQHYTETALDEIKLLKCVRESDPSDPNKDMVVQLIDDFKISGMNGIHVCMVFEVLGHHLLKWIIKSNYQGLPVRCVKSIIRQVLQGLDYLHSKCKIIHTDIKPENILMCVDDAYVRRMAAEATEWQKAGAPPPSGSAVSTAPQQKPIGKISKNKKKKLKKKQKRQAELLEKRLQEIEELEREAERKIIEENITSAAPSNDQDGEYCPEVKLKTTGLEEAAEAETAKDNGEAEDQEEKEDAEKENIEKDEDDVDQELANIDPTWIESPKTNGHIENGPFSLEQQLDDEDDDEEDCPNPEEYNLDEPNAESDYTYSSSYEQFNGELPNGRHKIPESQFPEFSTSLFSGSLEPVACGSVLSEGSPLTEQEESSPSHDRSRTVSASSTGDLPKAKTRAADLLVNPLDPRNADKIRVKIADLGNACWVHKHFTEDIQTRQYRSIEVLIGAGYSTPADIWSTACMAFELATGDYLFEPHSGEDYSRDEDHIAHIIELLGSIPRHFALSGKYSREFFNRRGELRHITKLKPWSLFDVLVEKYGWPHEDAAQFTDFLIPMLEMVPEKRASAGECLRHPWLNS
T9 sequence (O00238 14-502): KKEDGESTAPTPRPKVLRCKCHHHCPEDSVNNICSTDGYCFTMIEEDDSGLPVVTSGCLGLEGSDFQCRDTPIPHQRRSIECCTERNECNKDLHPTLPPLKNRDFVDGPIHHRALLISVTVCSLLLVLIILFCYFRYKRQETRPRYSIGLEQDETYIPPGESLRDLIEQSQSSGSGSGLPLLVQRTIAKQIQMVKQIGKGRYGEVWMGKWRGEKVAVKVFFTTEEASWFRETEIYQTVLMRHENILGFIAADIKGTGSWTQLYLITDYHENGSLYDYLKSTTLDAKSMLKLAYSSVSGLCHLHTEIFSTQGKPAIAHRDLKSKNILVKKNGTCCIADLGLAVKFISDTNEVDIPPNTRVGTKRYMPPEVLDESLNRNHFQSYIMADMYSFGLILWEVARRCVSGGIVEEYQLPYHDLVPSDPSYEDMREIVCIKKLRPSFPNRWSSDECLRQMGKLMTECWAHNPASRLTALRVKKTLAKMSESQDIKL

On to `c1ccc2c(-c3cnn4cc(-c5ccc(N6CCNCC6)cc5)cnc34)ccnc2c1` [LDN-193189], for which the ISV formation phenotype result in data set [1] (10 µM) is on record as “defects in intersomitic vessel (ISV) formation; also recorded: weak ISV defects”. Moreover, the ΔTm at 10 µM was 0.7 °C on CLK3; 5.3 °C on MPSK1; -0.3 °C on PTK7; 1.2 °C at SLK; 0.3 °C on CK1γ1.

For the compound `COc1cc(-c2cc(-c3cccc(O)c3)cnc2N)cc(OC)c1OC` [K02288, 3-[6-amino-5-(3,4,5-trimethoxy-phenyl)-pyridin-3-yl]-phenol], the ISV formation phenotype result in data set [1] (10 µM) is “no phenotype”; in data set [1] (10–20 µM) it was “no ISV defects”. For the same compound, the ΔTm at 10 µM is 0.2 °C on PRKX; 6.9 °C on GAK; -0.1 °C at ZAK; 0 °C at CLK3; 13.9 °C on ALK6; 0.3 °C at MPSK1. In addition, the ΔTm at 10 µM on PTK7 is -1.3 °C; at SLK it was 1 °C; on CK1γ1, 0.7 °C; on SRPK2, 0.2 °C.

Consider `c1cc(-c2cnn3cc(-c4ccc(OCCN5CCCCC5)cc4)cnc23)ccn1` [Dorsomorphin], for which the ISV formation phenotype entry in data set [1] (10 µM) is recorded as “defects in intersomitic vessel (ISV) formation”. For the same compound, the ΔTm at 10 µM on PRKX worked out at 2.9 °C; at GAK, 4.3 °C; at ZAK, 0.5 °C; at CLK3 it was 3.7 °C; at ALK6 it was 12.4 °C; at MPSK1, 5.3 °C. Further, the ΔTm at 10 µM at PTK7 is -1.2 °C; on SLK, 1.6 °C; at CK1γ1, 0.4 °C; at SRPK2, 0.2 °C.

(Values after article PMC3639963, “A New Class of Small Molecule Inhibitor of BMP Signaling” (PLoS ONE, 2013).)
